We go through eleven compounds from patent publication US11578077B2, “Spiro-oxazolones” (Hoffmann-La Roche Inc., priority 2013, dated 2023).

This assay concerns the target human V1a receptor (Homo sapiens (Human), UniProt P37288). Briefly: human V1a receptor binding studies (3H-Vasopressin, SPA beads). The note with it: membranes of HEK293 cells transiently transfected with human V1a receptor, Ki by Cheng-Prusoff. As for the experimental part:
The human V1a receptor was cloned by RT-PCR from total human liver RNA. The coding sequence was subcloned in an expression vector after sequencing to confirm the identity of the amplified sequence. […] Cell membranes were prepared from HEK293 cells transiently transfected with the expression vector and grown in 20 liter fermenters with the following protocol.
50 g of cells are re-suspended in 30 ml freshly prepared ice cold Lysis buffer ([…] HEPES. 1 mM EDTA, 10 mM MgCl2 adjusted to pH=7.4+complete cocktail of protease inhibitor (Roche Diagnostics)). Homogenized with Polytron for 1 min and sonicated on ice for 2×2 minutes at 80% intensity (Vibracell sonicator). The preparation is centrifuged 20 min at 500 g at 4° C., the pellet is discarded and the supernatant centrifuged 1 hour at 43'000 g at 4° C. (19'000 rpm). The pellet is re-suspended in 12.5 ml Lysis buffer+12.5 ml Sucrose 20% and homogenized using a Polytron for 1-2 min. The protein concentration is determined by the Bradford method and aliquots are stored at −80° C. until use. For binding studies 60 mg Yttrium silicate SPA beads (Amersham) are mixed with an aliquot of membrane in binding buffer (50 mM Tris, 120 mM NaCl, 5 mM KCl, 2 mM CaCl2, 10 mM MgCl) for 15 minutes with mixing. 50 μl of bead/membrane mixture is then added to each well of a 96 well plate, followed by […] of 4 nM 3H-Vasopressin (American Radiolabeled Chemicals). For total binding measurement 100 μl of binding buffer are added to the respective wells, for non-specific binding 100 μl of […] cold vasopressin and for compound testing 100 μl of a serial dilution of each compound in 2% DMSO. The plate is incubated 1 h at room temperature, centrifuged 1 min at 1000 g and counted on a Packard Top-Count. Non-specific binding counts are subtracted from each well and data is normalized to the maximum specific binding set at 100%. To calculate an IC 50 the curve is fitted using a non-linear regression model (XLfit) and the Ki is calculated using the Cheng-Prussoff equation.

Chain of human V1a receptor (P37288 whole entry): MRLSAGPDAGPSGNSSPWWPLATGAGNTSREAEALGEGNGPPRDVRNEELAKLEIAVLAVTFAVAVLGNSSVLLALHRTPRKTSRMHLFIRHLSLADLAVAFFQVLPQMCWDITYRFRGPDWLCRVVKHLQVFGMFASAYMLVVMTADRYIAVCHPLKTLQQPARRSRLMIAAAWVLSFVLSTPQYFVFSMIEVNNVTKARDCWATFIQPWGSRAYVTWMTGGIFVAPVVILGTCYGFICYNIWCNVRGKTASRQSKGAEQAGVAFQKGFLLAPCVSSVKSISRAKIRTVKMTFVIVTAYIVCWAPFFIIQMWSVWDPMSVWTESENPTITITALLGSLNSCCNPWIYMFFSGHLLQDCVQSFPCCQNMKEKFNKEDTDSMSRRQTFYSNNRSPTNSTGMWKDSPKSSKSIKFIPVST

Take `O=C1OC2(CCN(C3=NC(=O)C4(CCCc5ccccc54)O3)CC2)c2ccccc21` (centres unmarked) [Example 63, 1′-(4′-oxo-3,4-dihydro-2H,4′H-spiro[naphthalene-1,5′-[1,3]oxazol]-2′-yl)-3H-spiro[2-benzofuran-1,4′-piperidin]-3-one]: the “pKi hV1a” value amounted to 6.7.

For `Cc1cnc2c(c1)C1(CCN(C3=NC(=O)C4(Cc5ccccc5C4)O3)CC1)OC2=O` [Example 53, 3-methyl-1′-(4′-oxo-1,3-dihydro-4′H-spiro[indene-2,5′-[1,3]oxazol]-2′-yl)-7H-spiro[furo[3,4-b]pyridine-5,4′-piperidin]-7-one], the “pKi hV1a” value was determined as 7.4.

With `O=C1N=C(N2CCC3(CC2)OCc2ccccc23)OC12Cc1cccnc1C2` (centres unmarked) [Example 56, 2′-(1′H,3H-spiro[2-benzofuran-1,4′-piperidin]-1′-yl)-5,7-dihydro-4′H-spiro[cyclopenta[b]pyridine-6,5′-[1,3]oxazol]-4′-one], the “pKi hV1a” value was 8.2.

On to `Cc1cc2c(cn1)CC1(C2)OC(N2CCC3(CC2)OCc2ccccc23)=NC1=O` (centres unmarked) [Example 58, 3-methyl-2′-(1′H,3H-spiro[2-benzofuran-1,4′-piperidin]-1′-yl)-5,7-dihydro-4′H-spiro[cyclopenta[c]pyridine-6,5′-[1,3]oxazol]-4′-one], for which the “pKi hV1a” value is given as 7.7.

Take `O=C1N=C(N2CCC3(CC2)OCc2ccccc23)OC12Cc1cnc(C(F)(F)F)cc1C2` (centres unmarked) [Example 61, 2′-(1′H,3H-spiro[2-benzofuran-1,4′-piperidin]-1′-yl)-3-(trifluoromethyl)-5,7-dihydro-4′H-spiro[cyclopenta[c]pyridine-6,5′-[1,3]oxazol]-4′-one]: the “pKi hV1a” value is reported as 8.5.

Regarding `O=C1OC2(CCN(C3=NC(=O)C4(Cc5ccccc5C4)O3)CC2)c2ccc(F)cc21` [Example 15, 5-fluoro-1′-(4′-oxo-1,3-dihydro-4′H-spiro[indene-2,5′-[1,3]oxazol]-2′-yl)-3H-spiro[2-benzofuran-1,4′-piperidin]-3-one], the “pKi hV1a” value came out at 8.9.

Turning to `O=C1N=C(N2CCC3(CC2)OCc2ncccc23)OC12Cc1ccccc1C2` [Example 37, 2′-(1′H,7H-spiro[furo[3,4-b]pyridine-5,4′-piperidin]-1′-yl)-1,3-dihydro-4′H-spiro[indene-2,5′-[1,3]oxazol]-4′-one], the “pKi hV1a” value came out at 8.0.

In the case of `Cc1ccc2c(n1)C1(CCN(C3=NC(=O)C4(Cc5ccccc5C4)O3)CC1)OC2=O` [Example 43, 2-methyl-1′-(4′-oxo-1,3-dihydro-4′H-spiro[indene-2,5′-[1,3]oxazol]-2′-yl)-5H-spiro[furo[3,4-b]pyridine-7,4′-piperidin]-5-one], the “pKi hV1a” value came to 8.3.

Regarding `Cc1cc2c(cc1C)CC1(C2)OC(N2CCC3(CC2)OC(=O)c2ccccc23)=NC1=O` [Example 26, 1′-(5,6-dimethyl-4′-oxo-1,3-dihydro-4′H-spiro[indene-2,5′-[1,3]oxazol)-2′-yl)-3H-spiro[2-benzofuran-1,4′-piperidin]-3-one], the “pKi hV1a” value is on record as 6.4.

Turning to `CC1(C)OC2(CCN(C3=NC(=O)C4(Cc5ccccc5C4)O3)CC2)c2cccnc21` [Example 39, 2′-(7,7-dimethyl-1′H,7H-spiro[furo[3,4-b]pyridine-5,4′-piperidin]-1′-yl)-1,3-dihydro-4′H-spiro[indene-2,5′-[1,3]oxazol]-4′-one], the “pKi hV1a” value is listed as 9.1.

Take `CC1(C)OC2(CCN(C3=NC(=O)C4(Cc5ccccc5C4)O3)CC2)c2ccccc21` [Example 3, 2′-(3,3-dimethyl-1′H,3H-spiro[2-benzofuran-1,4′-piperidin]-1′-yl)-1,3-dihydro-4′H-spiro[indene-2,5′-[1,3]oxazol]-4′-one]: the “pKi hV1a” value is 9.3.
